In ChEMBL document CHEMBL5506003, “Design and biological evaluation of dual tubulin/HDAC inhibitors based on millepachine for treatment of prostate cancer” (Eur J Med Chem, 2024) one finds IC50, Activity and inhibition in vivo data, which are given here for 3 compounds.

Structures are written as SMILES.

Data set [1] concerns PC-3. Put plainly: Cytotoxicity against human PC-3 cells incubated for 72 hrs by MTT assay. Particulars: PC-3, 72 h. A general note: Tetrazolium assays rely on reduction of a dye to a coloured formazan, in cell work by metabolically active cells.
The target in another data set is T1, Histone deacetylase 7 (Homo sapiens, UniProt Q8WUI4).
T1 sequence (Q8WUI4 whole entry): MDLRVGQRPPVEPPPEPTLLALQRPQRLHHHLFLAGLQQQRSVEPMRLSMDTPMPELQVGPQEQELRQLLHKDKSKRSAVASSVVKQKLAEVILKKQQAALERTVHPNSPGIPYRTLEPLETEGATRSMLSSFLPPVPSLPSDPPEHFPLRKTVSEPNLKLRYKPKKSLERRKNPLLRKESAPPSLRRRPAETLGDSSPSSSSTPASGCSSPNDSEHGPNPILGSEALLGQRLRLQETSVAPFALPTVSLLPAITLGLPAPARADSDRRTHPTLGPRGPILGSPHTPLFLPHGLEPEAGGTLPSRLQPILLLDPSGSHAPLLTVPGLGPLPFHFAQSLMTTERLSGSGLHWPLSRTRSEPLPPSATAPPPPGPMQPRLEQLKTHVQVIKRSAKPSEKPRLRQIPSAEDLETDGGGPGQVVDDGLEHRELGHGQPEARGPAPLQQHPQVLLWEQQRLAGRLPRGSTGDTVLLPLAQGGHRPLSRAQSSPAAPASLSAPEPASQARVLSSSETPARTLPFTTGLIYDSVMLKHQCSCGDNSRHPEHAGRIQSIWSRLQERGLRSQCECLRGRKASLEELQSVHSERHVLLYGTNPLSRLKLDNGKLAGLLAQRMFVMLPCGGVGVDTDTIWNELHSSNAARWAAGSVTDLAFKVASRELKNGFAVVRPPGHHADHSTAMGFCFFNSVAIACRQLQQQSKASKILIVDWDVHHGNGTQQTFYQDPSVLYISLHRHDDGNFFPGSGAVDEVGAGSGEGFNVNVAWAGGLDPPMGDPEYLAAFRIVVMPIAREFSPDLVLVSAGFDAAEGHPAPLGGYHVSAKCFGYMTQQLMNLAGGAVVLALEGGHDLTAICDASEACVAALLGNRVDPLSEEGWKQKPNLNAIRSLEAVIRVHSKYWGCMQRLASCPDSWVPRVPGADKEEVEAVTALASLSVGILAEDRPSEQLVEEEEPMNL
Kind of data set: Inhibition of HDAC7 in human HeLa nuclear extracts incubated for 30 mins by fluorescence based assay. It counts as cell-free.

For the next data set, the target named is Histone deacetylase 1 (Homo sapiens, UniProt Q13547). Kind of data set: Inhibition of HDAC1 in human HeLa nuclear extracts incubated for 30 mins by fluorescence based assay. It counts as cell-free.
A further data set relates to MCF7. Put plainly: Cytotoxicity against human MCF7 cells incubated for 72 hrs by MTT assay. The conditions noted are these: MCF7, 72 h.
For data set [2], the target named is T2, Protein deacetylase HDAC6 (Homo sapiens, UniProt Q9UBN7).
T2 sequence (Q9UBN7 whole entry): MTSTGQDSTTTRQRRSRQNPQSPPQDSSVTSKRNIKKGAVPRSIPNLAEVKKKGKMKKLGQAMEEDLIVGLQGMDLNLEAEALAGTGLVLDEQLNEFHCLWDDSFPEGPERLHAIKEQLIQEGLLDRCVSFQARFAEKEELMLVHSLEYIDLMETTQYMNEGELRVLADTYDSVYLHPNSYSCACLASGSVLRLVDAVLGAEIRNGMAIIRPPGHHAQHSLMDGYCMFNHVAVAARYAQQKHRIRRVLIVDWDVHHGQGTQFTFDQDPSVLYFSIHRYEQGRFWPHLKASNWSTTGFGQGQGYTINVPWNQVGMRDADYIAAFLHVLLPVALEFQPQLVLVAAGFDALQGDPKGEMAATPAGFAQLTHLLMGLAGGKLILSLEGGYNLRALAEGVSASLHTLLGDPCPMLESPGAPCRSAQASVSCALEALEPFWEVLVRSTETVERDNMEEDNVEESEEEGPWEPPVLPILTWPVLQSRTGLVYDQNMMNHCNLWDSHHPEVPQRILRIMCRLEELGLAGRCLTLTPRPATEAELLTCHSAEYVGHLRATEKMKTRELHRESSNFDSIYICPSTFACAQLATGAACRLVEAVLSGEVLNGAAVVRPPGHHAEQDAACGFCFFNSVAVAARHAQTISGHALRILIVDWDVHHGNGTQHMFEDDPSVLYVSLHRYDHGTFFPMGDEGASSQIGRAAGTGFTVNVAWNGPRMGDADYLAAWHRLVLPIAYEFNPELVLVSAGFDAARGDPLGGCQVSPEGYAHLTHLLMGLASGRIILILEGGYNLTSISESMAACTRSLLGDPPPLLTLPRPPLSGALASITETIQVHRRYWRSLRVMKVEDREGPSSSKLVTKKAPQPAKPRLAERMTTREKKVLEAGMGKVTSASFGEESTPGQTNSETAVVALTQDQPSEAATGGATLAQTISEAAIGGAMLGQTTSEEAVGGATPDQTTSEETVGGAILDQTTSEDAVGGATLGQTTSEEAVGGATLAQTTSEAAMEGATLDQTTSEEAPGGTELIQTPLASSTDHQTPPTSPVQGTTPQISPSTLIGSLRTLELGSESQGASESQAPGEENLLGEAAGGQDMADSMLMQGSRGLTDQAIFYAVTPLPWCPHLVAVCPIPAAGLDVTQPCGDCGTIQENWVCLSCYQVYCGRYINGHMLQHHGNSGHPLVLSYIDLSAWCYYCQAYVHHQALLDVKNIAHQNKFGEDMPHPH
Put plainly: Inhibition of HDAC6 in human HeLa nuclear extracts incubated for 30 mins by fluorescence based assay. It counts as cell-free.

The next data set has as its system MDA-MB-231. Kind of data set: Cytotoxicity against human MDA-MB-231 cells incubated for 72 hrs by MTT assay. It counts as functional, cell-based. Particulars: MDA-MB-231, 72 h.
The next data set concerns U-251. Kind of data set: Cytotoxicity against human U-251 cells incubated for 72 hrs by MTT assay. Particulars: U-251, 72 h.
A further data set concerns A549. Kind of data set: Cytotoxicity against human A549 cells incubated for 72 hrs by MTT assay. The conditions noted are these: A549, 72 h.
Another data set has as its target Histone deacetylase 2 (Homo sapiens, UniProt Q92769). Kind of data set: Inhibition of HDAC2 in human HeLa nuclear extracts incubated for 30 mins by fluorescence based assay. The class given is cell-based.
Data set [3] in a line: Toxicity in BALB/c nude mouse xenografted with human PC-3 cells assessed as mortality at 5 mg/kg, iv administered every 2 days and measured after 3 weeks. The class given is organism-based. Particulars: in vivo, 504 h. A general note: In xenograft studies the graft and the host belong to different species.
For data set [4], the system named is PC-3. Put plainly: Antitumor activity against human PC-3 cells xenografted in BALB/c nude mouse assessed as tumor growth inhibition at 5 mg/kg, iv administered every 2 days and measured after 3 weeks. It counts as functional. Particulars: PC-3, 504 h, read-out: TGI.
The nature of data set [5]: Toxicity in BALB/c nude mouse xenografted with human PC-3 cells assessed as body weight loss at 5 mg/kg, iv administered every 2 days and measured after 3 weeks. Particulars: in vivo, 504 h. It counts as organism-based.

Broadly, the IC50 is the concentration at which inhibition is half-maximal. Low readings indicate inhibition by little substance, high ones a need for much substance.

Histone deacetylase 1, sequence (Q13547 whole entry): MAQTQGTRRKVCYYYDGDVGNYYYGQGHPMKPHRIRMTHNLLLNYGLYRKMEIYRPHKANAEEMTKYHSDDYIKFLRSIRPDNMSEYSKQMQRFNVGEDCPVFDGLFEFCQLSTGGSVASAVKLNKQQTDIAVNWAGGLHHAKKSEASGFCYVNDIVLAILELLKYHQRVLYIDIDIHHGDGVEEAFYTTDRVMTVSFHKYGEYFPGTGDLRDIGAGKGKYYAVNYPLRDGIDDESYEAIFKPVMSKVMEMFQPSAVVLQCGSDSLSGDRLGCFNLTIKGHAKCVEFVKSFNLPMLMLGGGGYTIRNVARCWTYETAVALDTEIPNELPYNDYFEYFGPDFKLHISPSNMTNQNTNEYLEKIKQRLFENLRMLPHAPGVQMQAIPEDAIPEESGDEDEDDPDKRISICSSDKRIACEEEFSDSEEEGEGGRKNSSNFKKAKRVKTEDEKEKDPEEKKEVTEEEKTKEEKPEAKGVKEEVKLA
Histone deacetylase 2, sequence (Q92769 whole entry): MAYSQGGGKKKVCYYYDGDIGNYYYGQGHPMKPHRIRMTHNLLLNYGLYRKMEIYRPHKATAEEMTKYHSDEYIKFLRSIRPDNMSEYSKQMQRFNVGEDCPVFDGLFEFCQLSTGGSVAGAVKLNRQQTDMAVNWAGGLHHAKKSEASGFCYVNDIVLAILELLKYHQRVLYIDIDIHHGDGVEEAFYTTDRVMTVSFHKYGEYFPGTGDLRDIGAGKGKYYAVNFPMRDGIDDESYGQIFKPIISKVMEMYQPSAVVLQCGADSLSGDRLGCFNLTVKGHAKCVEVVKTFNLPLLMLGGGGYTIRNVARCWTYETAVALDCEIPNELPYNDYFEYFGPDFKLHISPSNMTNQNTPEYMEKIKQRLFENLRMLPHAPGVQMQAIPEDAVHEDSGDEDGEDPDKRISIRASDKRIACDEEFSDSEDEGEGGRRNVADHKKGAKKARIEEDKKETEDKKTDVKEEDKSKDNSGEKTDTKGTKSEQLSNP

Consider `COc1ccc(/C=C/C(=O)c2ccc(Br)c3c2OC(C)(C)C=C3)cc1OCC(=O)NO`, for which the IC50 in the data set with PC-3 [1] amounted to 720 nM; on Histone deacetylase 7, 5420 nM; against Histone deacetylase 1 it was 580 nM; with MCF7, 1820 nM; in data set [2], 1210 nM; in the data set on MDA-MB-231 it was 470 nM. In addition, the figures for the IC50 in the data set with U-251, with A549 and on Histone deacetylase 2 were 490 nM, 1310 nM and 830 nM, respectively.

As to `COc1ccc(/C=C/C(=O)c2ccc(Br)c3c2OC(C)(C)C=C3)cc1NCC(=O)NO`, the IC50 was 32 nM in the data set with PC-3 [1]; 8300 nM at Histone deacetylase 7; 870 nM against Histone deacetylase 1; 190 nM in the data set on MCF7; 3350 nM in data set [2]; 160 nM with MDA-MB-231. The IC50 in the data set on U-251 is 140 nM; in the data set on A549, 800 nM; against Histone deacetylase 2, 1430 nM.

As to `CC(=O)O[C@H]1C(=O)[C@@]2(C)[C@H]([C@H](OC(=O)c3ccccc3)[C@]3(O)C[C@H](OC(=O)[C@H](O)[C@@H](NC(=O)c4ccccc4)c4ccccc4)C(C)=C1C3(C)C)[C@]1(OC(C)=O)CO[C@@H]1C[C@@H]2O` [PACLITAXEL], the Activity result in data set [3] and in [5] was “Toxic” in each case. The inhibition in vivo at 5 mg/kg in the data set with PC-3 [4] turned out to be 91.3%.
